Measurements as given in the METLIN SMRT retention time set (Domingo-Almenara et al. 2019).

Assay: gradient 5% acetonitrile 3 min, to 50% in 2 min, to 85% in 15 min, held 3 min, 100 µL/min
Conditions: column: Zorbax Extend-C18 2.1 x 50 mm; eluents: water / acetonitrile, 0.1% formic acid
Procedure, shortened: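 A Zorbax Extend-C18 column (2.1 × 50 mm, 1.8 μm) run at 100 μL/min with water and acetonitrile, both containing 0.1% formic acid, separated mixtures of ~100 pure standards. The HPLC was coupled to a quadrupole time-of-flight mass spectrometer operated in positive and negative ionization mode, with dead and dwell volumes of 40 μL and 900 μL. Each retention time was taken from a computationally picked adduct peak that was then manually inspected.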

Row | Structure (SMILES) | RP-LC retention time [s]
1 | Cc1nnc(NC(=O)C2CCN(C(=O)c3ccc(F)cc3)CC2)s1 | 624
2 | CC(C)CCNC(=O)[C@H](CC(C)C)NC(=O)[C@H]1O[C@@H]1C(=O)O | 841
3 | Cn1c(=O)c2cc(C(=O)Nc3ccc(F)cc3)cnc2n(-c2ccc(F)cc2)c1=O | 960
4 | COc1cccc(CNC(=O)c2nnc(-c3ccc(S(=O)(=O)N(C)C)cc3)o2)c1OC | 829
5 | Cc1ccc(NC(=O)N2CCCC2c2nc(-c3cccc(C)c3)no2)cc1 (stereo not given) | 1060
6 | CCC(C(=O)c1ccccc1)n1c(N2CCOCC2)nc2c1c(=O)n(C)c(=O)n2C (stereo not given) | 806
7 | COC[C@@H]1CN(S(=O)(=O)C(C)C)C[C@H]1c1ccccn1 | 619
8 | CC(C)NC(=O)N1CCCC(Cn2cnc3cccnc32)C1 (stereo not given) | 610
9 | c1ccc(-c2cn3ccccc3n2)cc1 | 644
10 | O=C(NC1CC1)c1ccc2c(c1)CCN2C(=O)C1CCC1 | 721
11 | COC(=O)c1cc(C)nc2c1c(=O)n(Cc1ccc(C)cc1)c(=O)n2Cc1ccco1 | 1160
12 | Cn1cc(C(=O)Nc2ccc3c(c2)OCO3)c2cccnc21 | 730
13 | Cc1ccc(C)c(NC(=O)Cn2cnc3nc(N4CCCC(C(=O)NC5CC5)C4)sc3c2=O)c1 (stereo not given) | 683
14 | COc1ccccc1Nc1c(-c2ccc(SC)cc2)nc2cnccn12 | 974
15 | Cc1csc(-n2nc(C)c(CC(=O)Nc3ccccc3Cl)c2C)n1 | 1010
16 | COc1cccc(CNC(=O)CCNc2cnc3cnccn23)c1 | 585
17 | CCOc1ccc(NC(=O)Cn2nc3cc(C)nc(N4CCCC4)n3c2=O)cc1 | 765
18 | O=C(c1cc(-c2cccc(Cl)c2)nc2ccccc12)N1CCN(c2ccccn2)CC1 | 766
19 | CCCCCc1nnc(NC(=O)C2CC(=O)N(CCc3c[nH]c4ccc(C)cc34)C2)s1 (stereo not given) | 873
20 | Cc1cc(C)n(C(=O)c2cn(-c3ccc(S(=O)(=O)N4CCCC(C)C4)cn3)cn2)n1 (stereo not given) | 1020
21 | NC(=O)C1CCCN(C(=O)c2ccc(F)cc2F)C1 (stereo not given) | 599

Row | Structure (SMILES) | RP-LC retention time [s]
22 | Cc1cc(F)ccc1NC(=O)c1cn2c(n1)CCCC2 | 600
23 | Cc1cc(-c2c(C)sc(C)c2S(=O)(=O)NC2CCC(C)CC2)n[nH]1 (stereo not given) | 1140
24 | CC(C)NC(=O)c1ccc(OCC2CCN(C(=O)C(C)C)CC2)cc1 | 756
25 | CC(Oc1ccc(Cl)cc1Cl)C(=O)NCCn1ncccc1=O (stereo not given) | 722
26 | CC(=O)c1cccc(Nc2c(C(=O)OC(C)C)cnc3nc(C)ccc23)c1 | 694
27 | CCN1C(=O)COc2ccc(-c3nc(NC(=O)CC(C)C)sc3C)cc21 | 962
28 | Cc1ccc(C)c(NC(=O)N2CCN(c3cc(-c4ccncc4)[nH]n3)CC2)c1 | 615
29 | CCc1ccc(NS(=O)(=O)c2c(C)sc(C)c2-c2cc(C(F)(F)F)on2)cc1 | 1240
30 | Cc1ccccc1Nc1c(-c2cccc(Cl)c2)nc2c(C)cccn12 | 802
31 | CCCC(=O)Nc1ccc2c(c1)nc(CN1CCN(S(C)(=O)=O)CC1)n2CC | 608
32 | COc1ccc(NC(=O)Nc2cccc(-c3ccc(N4CCOCC4)nn3)c2)cc1F | 675
33 | c1cn(Cc2nc(-c3ccc4c(c3)OCO4)no2)cn1 | 605
34 | CCCCCNC(=O)C1CCN(c2nccnc2Sc2ccc(C)cc2)CC1 | 1100
35 | CCOC(=O)c1nc(NCc2ccccc2OC)c2c(CC)noc2n1 | 943
36 | CCN1CCN(c2cc(C)c3cc(NC(=S)NC4CCCC4)ccc3n2)CC1 | 572
37 | Cc1ccc(N(C)S(=O)(=O)c2c(C)sc(C)c2-c2cc(C(F)(F)F)on2)cc1C | 1370
38 | O=c1n(Cc2cccc(C(F)(F)F)c2)nc2c(S(=O)(=O)N3CCCCCC3)cccn12 | 1020
39 | Cc1cc(Cl)ccc1S(=O)(=O)N1CC(Cc2nncn2C2CCCC2)C1 | 808
40 | Cc1ccc(-n2c(N3CCCC(C(=O)NCCC4=CCCCC4)C3)nc3ccsc3c2=O)cc1 (stereo not given) | 1060
41 | O=C(NCC1CCCO1)C1c2ccccc2C(=O)N1Cc1ccc2c(c1)OCO2 (stereo not given) | 728
42 | Cc1cc(F)ccc1NC(=O)CN1C(=O)NC2(CCCCC2)C1=O | 764

Row | Structure (SMILES) | RP-LC retention time [s]
43 | Nc1nc(N2CCN(C3CCCCC3)CC2)ncc1C(=O)NCc1ccccc1 | 627
44 | CC1CC(=O)N(Cc2c(F)cccc2Cl)c2ccccc2N1 (stereo not given) | 897
45 | O=c1ccc(-c2ccc(F)cc2)nn1CCc1nc(-c2ccncc2)no1 | 758
46 | COc1ccc(Cl)cc1NC(=O)N1CCC(C(=O)Nc2cc(C)on2)CC1 | 645
47 | COc1ccc(-c2cc(C(=O)NC3CCCC3)nn2C2CCS(=O)(=O)C2)cc1 (stereo not given) | 849
48 | CCCCC(=O)Nc1ccc2nc(N3CCN(CC)CC3)cc(C)c2c1 | 579
49 | Cn1c(N2CCN(C(=O)Cc3ccccc3Cl)CC2)cc(=O)n(C)c1=O | 732
50 | O=C(Cn1ccc2c(SCc3ccccc3)nccc21)N1CCN(c2ccc(F)cc2)CC1 | 786
51 | CN(C)S(=O)(=O)c1ccc(-c2nnc(C(=O)NCc3cccnc3)o2)cc1 | 595
52 | Cc1ccc2[nH]cc(CCNC(=O)CC3CCN(C(=O)NC4CCCCC4)CC3)c2c1 | 808
53 | COC1C(=O)N(C2CCN(C(=O)c3sc(C)nc3C)CC2)C12CCOCC2 (stereo not given) | 589
54 | COc1ccc(-c2nnc(-c3ccccc3Cl)o2)cc1S(=O)(=O)N(C)C | 895
55 | Cc1ccc(S(=O)(=O)c2cnc3cc4c(cc3c2N2CCOCC2)OCCO4)cc1 | 849
56 | CCCNC(=O)c1cn(-c2ccc(-c3nc(CC)no3)cn2)cn1 | 777
57 | Cc1cc(C)n(CCNC(=O)c2ccc(N3CCOCC3)nn2)n1 | 572
58 | CCNC(=O)c1c2c(nc3ccc(F)cc13)CCC2 | 613
59 | Cc1cc(C(=O)NC(C)C)c2cccc(Cl)c2n1 | 718
60 | CCN1CCN(c2cc(C(=O)O)c3cc(NS(=O)(=O)c4cc(F)ccc4C)ccc3n2)CC1 | 607
61 | CCC(=O)n1nc(-c2ccc(C)c(C)c2)nc1N | 923
62 | CC1=C(C(=O)Nc2cccc(C(=O)N3CCN(c4ccccn4)CC3)c2)SCCO1 | 612
63 | O=C(c1cc(F)ccc1F)N1CCCC2(C1)NC(=O)N(Cc1ccc(Cl)cc1)C2=O (stereo not given) | 844

Results, then the molecule that gave them:

Row | RP-LC retention time [s] | Structure (SMILES)
64 | 876 | Cc1ccc2c(c1)N(Cc1ccccc1)N=C(C(=O)N1CCCC1)S2(=O)=O
65 | 964 | COC(=O)c1ccccc1NC(=O)NCc1nc(-c2ccccc2)oc1C
66 | 884 | Cc1cc(NC(=O)Cn2nc(N3CCOCC3)c3ccccc3c2=O)ccc1Br
67 | 1060 | CCOc1ccccc1NC(=O)C1CCCN(S(=O)(=O)c2cc(-c3noc(C)n3)cs2)C1 (stereo not given)
68 | 894 | CCOc1ccc2nc(NC(=O)Cn3nc(C(=O)N4CCCC4)c4ccccc43)sc2c1
69 | 646 | CCN1CCN(c2cc(C)c3cc(NC(=O)C(c4ccccc4)C4CCCC4)ccc3n2)CC1 (stereo not given)
70 | 633 | CCCC(=O)Nc1ccc2nc(N3CCN(c4ccc(OC)cc4)CC3)cc(C(=O)O)c2c1
71 | 937 | CC(C)(OCc1nn(Cc2ccccc2)c2ccccc12)C(=O)O
72 | 878 | CCn1cnc(S(=O)(=O)N2CCCC(C(=O)Nc3ccc(C(C)C)cc3)C2)c1 (stereo not given)
73 | 762 | Cc1cc(=O)n(CC(=O)NCc2ccccc2Cl)c(N(C)Cc2ccccc2)n1
74 | 856 | COc1ccc(-c2c(C)noc2NC(C)=O)cc1S(=O)(=O)N1CCCc2ccccc21
75 | 561 | O=C(NCc1nc2ccccc2[nH]1)c1ccc(OCC(=O)C2CC2)cc1
76 | 946 | O=C(c1cccs1)N1CCCC1c1nc(-c2ccccc2)no1 (stereo not given)
77 | 968 | COC(=O)c1ccccc1NC(=O)CC1CCCCN1S(=O)(=O)c1ccccc1 (stereo not given)
78 | 892 | Cc1ccccc1NC(=O)Cn1nc(N2CCSCC2)c2ccccc2c1=O
79 | 1070 | CC1CCN(S(=O)(=O)c2ccc3nn(Cc4cccc(Cl)c4)c(=O)n3c2)CC1
80 | 744 | CC(=O)Nc1ccc(NC(=O)C2CCCN(S(=O)(=O)c3cc(-c4noc(C)n4)cs3)C2)cc1 (stereo not given)
81 | 911 | CCc1ccccc1NC(=O)C1CCCN(S(=O)(=O)c2c[nH]c(C(=O)N3CCCCCC3)c2)C1 (stereo not given)
82 | 705 | O=C(NCCc1ccccc1)C1CCCN(C(=O)c2cc(-c3ccccn3)n[nH]2)C1 (stereo not given)
83 | 717 | CC(=O)c1ccc(NC(=O)CN2C(=O)NC3(CCCCC3)C2=O)cc1
84 | 986 | CCOC(=O)C1CCCN(c2c(N3CCC(Cc4ccccc4)CC3)c(=O)c2=O)C1 (stereo not given)
85 | 686 | CCOCCCNC(=O)c1ncoc1-c1ccccc1C(=O)N1CCCC1
86 | 804 | CCc1nn2c(CNC(=O)C3CCC3)c(-c3ccccc3)nc2s1
87 | 906 | COc1ccccc1-c1noc(C2CCCN2C(=O)Nc2cc(C)ccc2C)n1 (stereo not given)
88 | 972 | CS(=O)(=O)N1CCC(C(=O)Nc2cccc(C(F)(F)F)c2)Oc2ccccc21 (stereo not given)
89 | 770 | O=C(CNC(=O)Cc1ccc(Cl)cc1)NCC(=O)N1CCCc2ccccc21
90 | 712 | COc1ccccc1NC(=O)Nc1nc(CC(=O)NCc2ccco2)cs1
